Values joined by “and” are separate entries in the source; they are usually repeats but may differ in a detail not shown here. Equal entries are not always repeated. Where two headings read alike, the source gives them in different places. Values belong to the compound of their own block, whether it stands above or below them.
Experiments:
[1] = Phase 1/2 study, safety (Example 12); format: in vivo, human
Method: Phase 1 (safety/PK/MTD (maximum tolerated dose) was followed by a Phase 2 randomized two arm portion. Two dose levels were evaluated in Phase 1.
Dosing was IV q 3 weeks for up to 6 cycles in the absence of dose-limiting toxicity or progression. […] The phase 2 primary endpoint is time to progression, with secondary endpoints of response rate, survival, and quality of life. Study pharmacodynamic parameters include NK cell activity and Hsp70 level.

Hsp70 [2] = test: Plasma Hsp70 levels by ELISA in non-tumor-bearing mice (Example 3); format: in vivo; conditions: normal (non-tumor bearing) mice; 25 mg/kg intravenously 3 times a week; compared to vehicle
Method: Non-tumor-bearing mice were with either vehicle alone or compound (1). The vehicle employed was 10% DMSO, 18% Cremophor RH40. […] Plasma samples were prepared from tail bleed. Plasma Hsp70 levels were determined by Enzyme-Linked Immunosorbent Assay (ELISA). Plasma Hsp70 was measured by a sandwich ELISA kit (Stressgen Bioreagents Victoria, British Columbia, CANADA) according to a modified protocol in house. In brief, Hsp70 in plasma specimens and serial concentrations of Hsp70 standard were captured onto 96-well plate on which anti-Hsp70 antibody was coated. Then captured Hsp70 was detected with a biotinylated anti-Hsp70 antibody followed by incubation with europium-conjugated streptavidin. After each incubation unbound materials were removed by washing. Finally, antibody-Hsp70 complex was measured by time resolved fluorometry of europium. Concentration of Hsp70 was calculated from a standard curve.

Hsp70 [3] = test: Phase I trial, Hsp70 in plasma before and after treatment (Example 11); format: in vivo, human
Method: Plasma Hsp70 was measured by a sandwich ELISA kit (Stressgen Bioreagents Victoria, British Columbia, CANADA) according to a modified protocol in house. In brief, Hsp70 in plasma specimens and serial concentrations of Hsp70 standard were captured onto 96-well plate on which anti-Hsp70 antibody was coated. Then captured Hsp70 was detected with a biotinylated anti-Hsp70 antibody followed by incubation with europium-conjugated streptavidin. After each incubation unbound materials were removed by washing. Finally, antibody-Hsp70 complex was measured by time resolved fluorometry of europium. Concentration of Hsp70 was calculated from a standard curve.

K562/eGFP = test: NK cell cytotoxic activity of patients' PBMC (Example 12); format: in vivo, human
Text: The following procedure can be employed to assay NK cell activity in a subject. The procedure is adapted from Kantakamalakul W, Jaroenpool J, Pattanapanyasat K. A novel enhanced green fluorescent protein (EGFP)-K562 flow cytometric method for measuring natural killer (NK) cell cytotoxic activity. J Immunol Methods. 2003 Jan. 15; 272:189-197, the entire teachings of which are incorporated herein by reference.
K562 cells were transduced with retroviral vector which encode green fluorescent protein (eGFP). Stable cell line was selected with antibiotic, G418.
The subject's peripheral blood mononuclear cells (PBMCs) were prepared by clinical study sites and received in BD Vacutainer Cell Preparation Tube with sodium heparin (Product Number: 362753, Becton Dickinson, Franklin Lakes, N.J.).
Effector cells alone and target cells alone were used as controls. All tubes were incubated at 37° C. with 5% CO2 for about 3.5 hr. Ten microliters of propidium iodide (PI) at a concentration of 1 mg/mL was added t each tube including effector and target control tubes and then incubated at room temperature for 15 min.
Cytotoxic activity was analyzed with a FACSCalibur flow cytometer (Becton Dickinson). Linear amplification of the forward and side scatter (FSC/SSC) signals, as well as logarithmic amplification of eGFP and PI emission in green and red fluorescence were obtained. […]

in vivo = test: in vivo
Method: The compounds were prepared in two formulations: Formulation A contained 10% DMSO, and 18% Cremophor RH40 in water; Formulation B contained ethanol:Cremophor EL in a 1:1 ratio.
Blood samples were taken at 30 min, 1, 2, and 4 hr after injection. Brain tissue samples were taken after blood collected at 30 min, where one mouse from each group was selected and its brain was removed for analysis.
Blood samples were combined with 3-5 mg solid DTT, after which the sample was vortexed and centrifuged at 6,000 rpm×10 min. A 50 μL aliqot of plasma was taken, followed by the addition of 50 μL 1% DTT and 150 μL CH3CN (0.1% TFA). The mixture was vortexed and centrifuged at 10,000 rpm×5 min. The 150 μL supernatant was diluted with 150 μL water. A weighed tissue sample was homogenized in PBS (1:1), then combined with 1% DTT (1:1), followed by the addition of CH3CN containing 0.1% TFA (3:1). The mixture was vortexed and centrifuged at 10,000 rpm×5 min. The 150 μL supernatant was diluted with 150 μL water. 100 μL prepared samples were subjected to HPLC, using 5-95% CH3CN (0.1% trifluoroacetic acid) as the eluent.

[4] = Tissue distribution in SW female mice, intravenous (Example 1); format: in vivo; conditions: mouse
Method: Plasma samples were prepared by combining 50 μL plasma+50 μL 1% dithiothreitol (DTT)+150 μL CH3CN (0.1% HCOOH), centrifuged at 10,000 rpm×5 min; 150 μL supernatant+90 μL H2O. Tissue samples were prepared by homogenizing a weighed tissue sample in phosphor-buffered saline (PBS, ×1)+1% DTT (×1)+CH3CN (0.1% HCOOH) (×3)), centrifuged at 10,000 rpm×5 min; 150 μL supernatant+90 μL H2O. […] The running time was 15 min.

[5] = Phase I trial, plasma pharmacokinetics by LC/MS (Example 11); conditions: co-administered with Compound (1) 44-[…]^2
Method: Pharmacokinetic (PK) studies were performed during cycle 1 using liquid chromatography/mass spectrometry (LC/MS) to measure both compounds in plasma. Heat shock protein 70 (Hsp70) was measured in plasma before and after treatment.

[6] = in vivo

Structure (SMILES): CN(NC(=O)CC(=O)NN(C)C(=S)c1ccccc1)C(=S)c1ccccc1 [Compound (1)]
- adverse effects (AEs), usually Grade 1-2 ([1]; Phase 1, 16 patients, with carboplatin and paclitaxel): arthralgia and myalgia, peripheral neuropathy, rash, nausea, and vomiting, fatigue, alopecia, edema, dehydration, constipation, and decreased blood counts
- tolerability of the carboplatin:paclitaxel:Compound (1) combination ([1]; at the dose levels studied): well tolerated
- plasma levels of Hsp70 (Hsp70 [2]): increase
- Hsp70 concentrations, change (Hsp70 [3]; 175 mg/m2 Compound (1) + paclitaxel 175 mg/m2, two patients): more than doubled
- percent increase in Hsp70 concentrations (Hsp70 [3]; 263 mg/m2 Compound (1) + paclitaxel 175 mg/m2, a third patient): more than 250%
- Hsp70 concentrations, change (Hsp70 [3]; 263 mg/m2 Compound (1) + paclitaxel 175 mg/m2, two patients): roughly doubled
- percent increase in Hsp70 concentrations (Hsp70 [3]; 350 mg/m2 Compound (1) + paclitaxel 175 mg/m2, all patients): more than 200%
- percent increase in Hsp70 concentrations (Hsp70 [3]; 350 mg/m2 Compound (1) + paclitaxel 175 mg/m2, two patients): ≤ 500%
- percent increase in Hsp70 concentrations (Hsp70 [3]; 438 mg/m2 Compound (1) + paclitaxel 175 mg/m2, another patient): ≤ 500%
- Hsp70 concentrations, change (Hsp70 [3]; 438 mg/m2 Compound (1) + paclitaxel 175 mg/m2, two patients): roughly doubled
- induction of Hsp70 protein in plasma, dose dependence (Hsp70 [3]; combined with paclitaxel): dose dependent
- patients with evaluable samples showing increased NK cell activity (K562/eGFP; assayed 7 days after the second dose, with carboplatin and paclitaxel): Seven of the 8
- % tumor cell lysis post-dose (K562/eGFP; per subject, Effector/Target 80:1, dose cells empty (subjects 9-11)): 3.8% and 45.98%
- half-life (in vivo; female, SW, mouse, in vivo, po, 100 mg/kg): 2.3 h

- per os AUC as % of the intravenous value at 4 hours (in vivo; per os 100 mg/kg formulation B vs intravenous 25 mg/kg formulation A, AUC 0-4 hours): about 30%
Structure (SMILES): COc1ccc(OC)c(C(=S)N(C)NC(=O)C(C)C(=O)NN(C)C(=S)c2cc(OC)ccc2OC)c1 [Compound (9)]

- Kp at 30 min ([4]; brain, intravenous, 25 mg/kg, read-out: brain concentration as % of plasma concentration): 0.19
- Kp at 30 min ([4]; brain, iv, first experiment, 25 mg/kg intravenously, 30 min after injection, read-out: brain concentration as % of the plasma concentration): ~0.07
- concentration at 30 min ([4]; brain, iv, first experiment, 25 mg/kg intravenously, 30 min after injection, read-out: concentration in brain): ~2 µM
- concentration at 30 min ([4]; kidney, iv, first experiment, 25 mg/kg intravenously, 30 min after injection, read-out: concentration in kidney): 50 µM
- concentration at 30 min ([4]; liver, iv, first experiment, 25 mg/kg intravenously, 30 min after injection, read-out: concentration in liver): 33 µM
- concentration at 30 min ([4]; spleen, iv, first experiment, 25 mg/kg intravenously, 30 min after injection, read-out: concentration in spleen): 25 µM
Structure (SMILES): CN(NC(=O)CC(=O)NN(C)C(=S)C1CC1)C(=S)C1CC1 [Compound (18)]

- paclitaxel Vss, dependence on the Compound (1) dose [5]: increase
- paclitaxel terminal phase half-life, dependence on the Compound (1) dose [5]: without affecting
Structure (SMILES): CC(=O)O[C@H]1C(=O)[C@@]2(C)[C@H]([C@H](OC(=O)c3ccccc3)[C@]3(O)C[C@H](OC(=O)[C@H](O)[C@@H](NC(=O)c4ccccc4)c4ccccc4)C(C)=C1C3(C)C)[C@]1(OC(C)=O)CO[C@@H]1C[C@@H]2O [Paclitaxel, paclitaxel]
- paclitaxel clearance, dependence on the Compound (1) dose [5]: significant trend toward decreasing clearance
- dose limiting toxicities [6]: neutropenia, arthralgia, and febrile neutropenia with mucositis

From patent US8148426B2, “Bis(thio-hydrazide amides) for increasing Hsp70 expression” (Synta Pharmaceuticals Corp., priority 2004, dated 2012)
